In this experiment the target is T1, electric eel acetylcholinesterase (eeAChE) (Electrophorus electricus, UniProt O42275).
T1 construct: purchased Sigma-Aldrich (Steinheim, Germany)
The experiment in a line: AChE inhibition, adapted Ellman method. The class given is biochemical. The settings on record: mean of two independent experiments ± SD, read-out: AChE Inhib IC50. On the procedure:
The enzyme inhibition of electric eel acetylcholinesterase (eeAChE) and equine butyrylcholinesterase (eqBChE) by our compounds was evaluated through an adaptation of Elmman´s method using reagents from Sigma-Aldrich (Steinheim, Germany). Stock solutions of each compound (1 mg) in MeOH (1 mL) were prepared and then working solutions for each ligand were obtained by the corresponding dilution of the stock solutions. A control measurement with 5 replicates (without ligand) and a calibration curve of 5 points with 3 replicates per point was performed. The preparation of each solution involved fixed volumes of 4-(2-hydroxyethyl)-1-piperazine-ethanesulfonic acid (HEPES) and cholinesterase (eeAChE or eqBChE) with different volumes of ligand solution, and it was left to rest for 15 min immediately after adding the cholinesterase. A blank solution containing HEPES and MeOH was also prepared at the same time. […] The slope for each calibration point (absorbance versus reaction time) was determined and the inhibition for each compound was calculated by using the following equation: %Inhibition=100−(vi/v0×100) where vi is the reaction rate (slope) for each point of the calibrate with ligand and v0 is the initial reaction rate (slope) for the control point (without ligand). […] Experiments were performed twice for each compound.

T1 sequence (O42275 24-633): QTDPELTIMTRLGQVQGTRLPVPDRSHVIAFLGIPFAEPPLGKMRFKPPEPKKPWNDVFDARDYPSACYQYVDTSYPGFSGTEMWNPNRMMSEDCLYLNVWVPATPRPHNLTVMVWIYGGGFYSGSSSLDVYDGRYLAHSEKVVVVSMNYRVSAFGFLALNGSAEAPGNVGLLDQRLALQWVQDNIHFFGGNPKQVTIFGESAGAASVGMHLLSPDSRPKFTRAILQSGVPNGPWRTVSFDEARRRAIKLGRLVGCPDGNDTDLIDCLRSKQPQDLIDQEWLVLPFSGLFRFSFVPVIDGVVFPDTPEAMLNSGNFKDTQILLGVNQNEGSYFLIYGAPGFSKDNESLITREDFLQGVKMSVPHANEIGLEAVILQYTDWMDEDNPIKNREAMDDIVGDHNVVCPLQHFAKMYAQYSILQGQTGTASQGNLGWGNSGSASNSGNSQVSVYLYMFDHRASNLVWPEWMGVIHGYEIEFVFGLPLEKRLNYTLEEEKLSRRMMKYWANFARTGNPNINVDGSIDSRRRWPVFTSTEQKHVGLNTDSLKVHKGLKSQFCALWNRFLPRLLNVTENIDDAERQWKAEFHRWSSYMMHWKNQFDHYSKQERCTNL

Broadly, the IC50 is the concentration needed to halve the response being measured. Take `CCN(C)C(=O)Oc1cccc(CNC(=O)c2cc3ccccc3[nH]2)c1` [Compound 5b1, 3-((1H-indole-2-carboxamido)methyl)phenyl ethylmethylcarbamate]: the IC50 was found to be 78.4 ± 0.8 µM. Consider `CCN(C)C(=O)Oc1cccc(NC(=O)c2cc3cccc(O)c3[nH]2)c1` [Compound 5a3, 3-(7-Hydroxy-1H-indole-2-carboxamido)phenyl ethyl(methyl)carbamate], for which the IC50 worked out at 10.9 ± 0.1 µM.

The values above are taken from article PMC10892719 (Pharmaceutics, 2024).
